The results in this text go back to patent publication US20020173523A1, “IMMUNOSUPPRESSION BY PHOTOCHEMOTHERAPY” (priority 1997, published 2002).

The subject of series [1] is mice of BALB/c (H-2K^d) strain. Kind of series: Rejection reactions upon transplantation of skin in mice, photochemotherapy with 664 nm laser light. Type of series: in vivo. Conditions: for Percentage (%) of number of the mice with the surviving and remaining skin graft transplanted: 1 mg/kg i.v., laser 664 nm 10 J/cm^2. Here is the method:
The following experiment was conducted in order to evaluate the therapeutic effect of the photochemotherapeutical method of this invention for treating the rejection reactions raised upon the transplantation of skin in mice.
Thus, as the mice (the recipient) which were to recieve a transplantation of skin, were used mice of BALB/c (H-2K^d) strain (ten mice per group). […] Thirty minutes after the intravenous injection of the test compound, a laser light at the wave length of 664 nm was irradiated onto the abdominal side of each recipient mouse at the laser output of 20 mW/cm^2, at the irradiated spots of a diameter of 18 mm and at a total laser fluence of 10 J/cm^2.
On the other hand, mice of CH/HeN(H-2K^b) strain were used as the mice (the donor) which were to afford the graft of skin for the transplantation to the recipient. The graft of skin to be used for the skin transplantation was one piece of the tail skin of the donor mice which was cut into a piece of about 5 mm×5 mm. This graft of skin was transplanted on the back side of the recipient mouse in such a manner that hair of the back side of the mouse was firstly shaved off, then one region of the skin of the hair-shaved back side of mouse was stripped off and the skin graft was transplanted onto the skin-stripped region of the back side of the recipient mouse. This skin transplantation was performed twenty-four hours after the irradiation of laser light on the recipient mouse.
Then, observation was made as to whether the skin graft so transplanted would fall off or not fall from the recipient mouse within the period of from the time of the skin transplantation to the 15 the days after the intravenous injection of the test compound.
The number of the recipient mice which normally have the transplanted and surviving skin graft remaining on the back side of mouse was counted at each of the given days of observation. The ratio of the number of the graft-remaining mouse at the each day to the number of the mouse at 0 day was expressed as percentage (%), with that the number of the recipient mice at the 0 day being assumed as 100.
Mice of the untreated group were those mice which received the skin transplantation only but neither received the administration of the test compound nor received the irradiation of laser light.

A short description of series [2]: Photo-toxicity test.
Series [3] concerns CD-1 mice (male). Nature of the series: Acute toxicity. Type of series: in vivo.
For series [4], the system named is BALB/c mice. Kind of series: Contact hypersensitivity test: ear swelling after primary and secondary sensitization with picryl chloride, photochemotherapy with 664 nm laser light. Particulars: for Rate of Ear swelling, (%) (Average value ± Standard deviation): laser 664 nm, 10 J/cm^2, 30 min after dosing, untreated group = 100%, 24 h after secondary sensitization. It counts as in vivo. The source says:
After the intravenous injection, hair of the abdominal side of the mice was shaved off. Thirty minutes after the administration of the test compound, a laser light at a wave length of 664 nm was irradiated onto the exposed skin of the abdominal side of the mice to give a total fluence of 10 J/cm^2 under the conditions of the laser output of 20 mW/cm^2 and the radiated spots of a diameter of 18 mm.
Five days after the primary sensitization, an aqueous solution containing 1% picryl chloride was applied to one ear of each mouse under test, to effect the secondary sensitization. Thus, there were prepared the treated groups of the test mice having a contact hypersensitibity.
(iii) Twenty-four hours after the secondary sensitization, namely six days after the primary sensitization, measurements were made of the thickness of both the ears of each mouse under test by a thickness gauge, and the increases in the thickness of ears were calculated from the difference which was found between the thickness of the one ear having not received the application of picryl chloride and the thickness of the another ear having received the application of picryl chloride for the secondary sensitization. Then, the rates (%) of ear swelling of each mouse of the treated group of mice were evaluated, on such assumption that the average value of the increase in the thickness of the secondarily sensitized ears of the mice of the untreated group was regarded as amounting to 100%, in respect of the mice of the untreated group of mice where the mice were neither administered with the test compound, nor were irradiated with the laser light, but where the mice received only the primary and secondary sensitizations with picryl chloride.

One may read the LD50 as the dose expected to kill half of the subjects tested. Low readings indicate a more toxic substance, high ones a less toxic substance. On to `C=Cc1c(C)c2cc3nc(c(CC(=O)N[C@@H](CC(=O)[O-])C(=O)[O-])c4[nH]c(cc5nc(cc1[nH]2)C(C)=C5CC)c(C)c4C(=O)[O-])[C@@H](CCC(=O)[O-])[C@@H]3C.[Na+].[Na+].[Na+].[Na+]`, for which the “Percentage (%) of number of the mice with the surviving and remaining skin graft transplanted” value is reported as 100% in series [1] (0th day (day of skin transplantation)); 100% in series [1] (6th day); 80% in series [1] (7th day); 80% in series [1] (10th day); 80% in series [1] (11th day); 0% in series [1] (15th day). In series [1] (i.v., laser light at 664 nm), the “Rejection reactions in transplantation of skin (result in words)” value is reported as “preventively suppressed”. Further, the “Percentage of the total mice tested with falling off of the skin graft” value in series [1] (within the period of 6th to 11th days, treated group) is recorded as 20%. Besides, in series [2], the “Photo-toxicity reactions (result in words)” value is given as “no reactions such as erythema, edema”. In series [3], this compound displayed an LD50 of 164 mg/kg. Further, the “Rate of Ear swelling, (%) (Average value ± Standard deviation)” value in series [4] (0.001 mg/kg i.v.) is reported as 54.4 ± 7.2%; in series [4] (0.01 mg/kg i.v.), 53.2 ± 20.6%; in series [4] (0.05 mg/kg i.v.) it was 33.3 ± 4.4%; in series [4] (0.1 mg/kg i.v.), 27.8 ± 8.5%. Also, the “Suppression of the ear swelling” value in series [4] (i.v. dosages of 0.001 mg/kg or more, then laser light) is recorded as at least 45%. The “Ear swelling in contact hypersensitivity testing (result in words)” value in series [4] (i.v., laser light at 664 nm) is on record as “remarkably be suppressed”.
